Measurements as given in ChEMBL document CHEMBL6182920, “The Discovery of C7-Substituted Norbornyl Bisamides as RXFP1 Small Molecule Agonists” (J Med Chem, 2025).
pEC50, pIC50: −log10 of the molar value.

Experiments:
Relaxin receptor 1 = molecular target: T1, Relaxin receptor 1 (Rattus norvegicus, UniProt Q6R6I6); experiment: Agonist activity at rat RXFP1 stably expressed in HEK293 cells assessed as intracellular cAMP accumulation incubated for 30 mins by HTRF assay; assay type: cell-based
T1 sequence (Q6R6I6 whole entry): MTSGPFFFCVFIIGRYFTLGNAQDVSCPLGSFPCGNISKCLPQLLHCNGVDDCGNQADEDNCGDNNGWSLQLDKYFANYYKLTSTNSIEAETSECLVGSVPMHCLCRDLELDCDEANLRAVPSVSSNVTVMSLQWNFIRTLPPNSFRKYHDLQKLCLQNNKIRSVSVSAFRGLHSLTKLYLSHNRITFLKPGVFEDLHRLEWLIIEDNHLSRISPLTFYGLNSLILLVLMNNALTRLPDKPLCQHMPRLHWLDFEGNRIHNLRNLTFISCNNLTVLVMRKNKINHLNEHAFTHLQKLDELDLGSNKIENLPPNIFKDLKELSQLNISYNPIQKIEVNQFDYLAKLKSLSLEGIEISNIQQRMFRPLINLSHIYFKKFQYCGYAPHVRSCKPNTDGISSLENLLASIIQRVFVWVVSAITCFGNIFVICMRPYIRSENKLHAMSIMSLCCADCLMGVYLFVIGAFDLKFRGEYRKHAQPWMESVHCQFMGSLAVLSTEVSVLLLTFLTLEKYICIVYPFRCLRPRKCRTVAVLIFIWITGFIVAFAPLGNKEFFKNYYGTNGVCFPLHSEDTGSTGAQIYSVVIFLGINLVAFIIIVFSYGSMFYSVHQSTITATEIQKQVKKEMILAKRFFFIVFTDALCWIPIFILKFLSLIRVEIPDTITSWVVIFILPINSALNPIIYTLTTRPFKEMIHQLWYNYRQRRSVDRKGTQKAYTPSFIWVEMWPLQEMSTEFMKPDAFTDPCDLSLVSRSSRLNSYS

Cytochrome P450 2D6 = Cytochrome P450 2D6 (Homo sapiens, UniProt P10635); experiment: Inhibition of CYP2D6 (unknown origin)
Chain of Cytochrome P450 2D6 (P10635 whole entry): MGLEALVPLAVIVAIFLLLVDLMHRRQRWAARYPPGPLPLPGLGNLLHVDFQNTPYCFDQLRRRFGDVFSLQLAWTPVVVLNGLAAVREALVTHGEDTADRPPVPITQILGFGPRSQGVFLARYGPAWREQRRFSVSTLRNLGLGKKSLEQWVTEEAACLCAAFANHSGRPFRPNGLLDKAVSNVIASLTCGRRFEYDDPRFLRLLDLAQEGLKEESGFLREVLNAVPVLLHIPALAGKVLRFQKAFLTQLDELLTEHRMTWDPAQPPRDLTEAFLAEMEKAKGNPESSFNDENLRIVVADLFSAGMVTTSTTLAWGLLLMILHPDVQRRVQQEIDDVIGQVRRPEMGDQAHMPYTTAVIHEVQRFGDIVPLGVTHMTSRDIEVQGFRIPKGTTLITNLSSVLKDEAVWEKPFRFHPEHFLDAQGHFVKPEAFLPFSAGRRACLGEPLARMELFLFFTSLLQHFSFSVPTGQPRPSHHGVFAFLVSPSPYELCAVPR

hERG = hERG (Homo sapiens, UniProt Q12809); experiment: Inhibition of hERG (unknown origin) at 30 uM by patch clamp assay relative to control
Chain of hERG (Q12809 whole entry): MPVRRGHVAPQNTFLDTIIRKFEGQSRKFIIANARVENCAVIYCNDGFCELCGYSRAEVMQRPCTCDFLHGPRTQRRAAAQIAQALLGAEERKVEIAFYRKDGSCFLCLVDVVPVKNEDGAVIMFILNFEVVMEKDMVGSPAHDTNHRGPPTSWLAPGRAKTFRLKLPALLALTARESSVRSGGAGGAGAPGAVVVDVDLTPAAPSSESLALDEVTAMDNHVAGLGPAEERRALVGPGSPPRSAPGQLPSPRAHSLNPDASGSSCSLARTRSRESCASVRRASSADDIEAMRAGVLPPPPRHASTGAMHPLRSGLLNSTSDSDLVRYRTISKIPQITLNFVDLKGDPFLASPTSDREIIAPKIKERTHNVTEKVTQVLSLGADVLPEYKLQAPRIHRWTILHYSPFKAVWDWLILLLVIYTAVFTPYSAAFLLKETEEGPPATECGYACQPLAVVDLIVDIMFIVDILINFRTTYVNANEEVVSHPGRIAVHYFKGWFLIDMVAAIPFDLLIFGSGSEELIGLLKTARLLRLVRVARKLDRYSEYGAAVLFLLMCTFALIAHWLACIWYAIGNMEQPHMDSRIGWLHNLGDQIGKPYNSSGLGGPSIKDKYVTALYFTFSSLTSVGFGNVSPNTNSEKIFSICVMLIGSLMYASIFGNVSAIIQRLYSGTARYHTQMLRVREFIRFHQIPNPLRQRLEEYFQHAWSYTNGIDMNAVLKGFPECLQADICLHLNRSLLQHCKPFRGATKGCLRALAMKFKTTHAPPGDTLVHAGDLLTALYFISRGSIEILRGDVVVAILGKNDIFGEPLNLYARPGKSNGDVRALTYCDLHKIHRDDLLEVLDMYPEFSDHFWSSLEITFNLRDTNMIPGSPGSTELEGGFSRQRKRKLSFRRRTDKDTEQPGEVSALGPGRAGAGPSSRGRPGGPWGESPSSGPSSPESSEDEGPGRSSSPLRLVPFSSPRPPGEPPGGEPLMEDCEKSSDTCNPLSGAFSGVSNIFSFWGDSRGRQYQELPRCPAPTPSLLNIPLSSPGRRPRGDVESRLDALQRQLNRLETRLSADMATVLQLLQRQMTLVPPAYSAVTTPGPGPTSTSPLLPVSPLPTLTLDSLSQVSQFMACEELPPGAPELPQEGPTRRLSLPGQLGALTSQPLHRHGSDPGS

Cytochrome P450 2C9 = Cytochrome P450 2C9 (Homo sapiens, UniProt P11712); experiment: Inhibition of CYP2C9 (unknown origin)
Chain of Cytochrome P450 2C9 (P11712 whole entry): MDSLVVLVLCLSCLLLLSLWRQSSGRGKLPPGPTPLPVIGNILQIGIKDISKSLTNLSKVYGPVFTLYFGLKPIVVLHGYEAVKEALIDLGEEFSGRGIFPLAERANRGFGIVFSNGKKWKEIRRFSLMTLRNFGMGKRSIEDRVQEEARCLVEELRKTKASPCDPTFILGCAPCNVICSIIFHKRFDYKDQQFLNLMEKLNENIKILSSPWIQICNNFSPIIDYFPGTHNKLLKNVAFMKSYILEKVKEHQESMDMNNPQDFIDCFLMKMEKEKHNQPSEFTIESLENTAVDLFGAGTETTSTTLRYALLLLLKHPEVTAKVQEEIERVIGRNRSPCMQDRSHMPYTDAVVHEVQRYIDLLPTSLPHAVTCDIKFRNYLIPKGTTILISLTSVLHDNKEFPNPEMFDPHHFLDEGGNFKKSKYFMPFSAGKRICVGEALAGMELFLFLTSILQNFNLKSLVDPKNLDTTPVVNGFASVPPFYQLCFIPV

Cytochrome P450 2C19 = Cytochrome P450 2C19 (Homo sapiens, UniProt P33261); experiment: Inhibition of CYP2C19 (unknown origin)
Chain of Cytochrome P450 2C19 (P33261 whole entry): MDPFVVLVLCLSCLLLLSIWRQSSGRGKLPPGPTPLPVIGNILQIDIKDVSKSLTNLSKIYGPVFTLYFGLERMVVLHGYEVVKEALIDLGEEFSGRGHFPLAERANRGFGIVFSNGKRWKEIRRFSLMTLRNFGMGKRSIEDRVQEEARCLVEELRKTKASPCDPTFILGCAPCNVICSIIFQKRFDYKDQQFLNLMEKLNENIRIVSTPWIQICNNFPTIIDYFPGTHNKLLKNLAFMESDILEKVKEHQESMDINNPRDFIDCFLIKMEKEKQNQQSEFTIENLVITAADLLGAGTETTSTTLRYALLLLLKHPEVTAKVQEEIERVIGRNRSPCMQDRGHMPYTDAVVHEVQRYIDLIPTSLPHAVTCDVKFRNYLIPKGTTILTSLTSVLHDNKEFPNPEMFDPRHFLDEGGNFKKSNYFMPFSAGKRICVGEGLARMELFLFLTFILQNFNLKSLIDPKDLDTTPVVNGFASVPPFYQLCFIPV

[1] = Clearance in Sprague-Dawley rat at 1 mg/kg, iv; assay type: ADME, organism-based; conditions: in vivo
Cytochrome P450 1A2 = molecular target: T2, Cytochrome P450 1A2 (Homo sapiens, UniProt P05177); experiment: Inhibition of CYP1A2 (unknown origin)
T2 sequence (P05177 whole entry): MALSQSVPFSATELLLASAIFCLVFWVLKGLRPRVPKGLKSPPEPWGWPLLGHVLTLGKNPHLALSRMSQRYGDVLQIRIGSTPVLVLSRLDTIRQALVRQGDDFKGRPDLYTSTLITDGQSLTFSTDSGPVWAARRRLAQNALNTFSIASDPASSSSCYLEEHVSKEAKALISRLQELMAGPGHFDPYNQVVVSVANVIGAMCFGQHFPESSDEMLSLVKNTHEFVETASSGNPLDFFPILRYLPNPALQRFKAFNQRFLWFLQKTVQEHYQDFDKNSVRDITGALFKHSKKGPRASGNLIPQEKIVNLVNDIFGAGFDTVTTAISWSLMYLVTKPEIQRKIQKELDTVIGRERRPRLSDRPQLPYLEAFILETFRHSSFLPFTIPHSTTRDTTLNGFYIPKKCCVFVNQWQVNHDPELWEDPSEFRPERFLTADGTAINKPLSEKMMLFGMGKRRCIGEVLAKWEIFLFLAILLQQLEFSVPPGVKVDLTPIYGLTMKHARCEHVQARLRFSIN

[2] = Microsomal stability in human liver microsomes assessed as half life; assay type: ADME, Microsome
L-type calcium channel = L-type calcium channel (Homo sapiens, UniProt O60840+Q01668+Q13698+Q13936); experiment: Inhibition of L-type calcium channel (unknown origin) at 10 uM by patch clamp assay relative to control
Mus musculus = experiment: Expansion of interpubic ligament in estrogen-treated female C57BL/6 mouse assessed as symphysis widening at 25 mg/kg, iv administered on day 7 and measured on day 8 by microCT analysis (reference value: 17.6 %); assay type: functional; conditions: time 1 day

pEC50 (Relaxin receptor 1): 7.35
pIC50 (Cytochrome P450 2D6): < 4.70
pIC50 (Cytochrome P450 2C9): 5.40
pIC50 (Cytochrome P450 2C19): 4.77
clearance [1]: 2.5 mL/min/kg
pIC50 (Cytochrome P450 1A2): 5.34
half-life [2]: > 2 h
inhibition at 10 µM (L-type calcium channel): 33%
Compound: CNC(=O)OC(C(=O)O)c1ccc(F)c(-c2ccc(OC)c(C(=O)N[C@H]3[C@@H](C(=O)Nc4ccc(F)c(C(F)(F)F)c4)[C@H]4CC[C@@H]3/C4=C\C3CC3)c2)c1 (stereo in doubt; 39)
inhibition at 30 µM (hERG): 7%
Activity (Mus musculus): 500.4%
